Assay results as given in patent US12590309B2, “Reprogramming of lipid metabolism to inhibit T cell senescence and enhance tumor immunotherapy” (Saint Louis University, priority 2019, dated 2026).
Read-outs that look alike come from different tables or passages of the source.

Columns and labels:
[1] = system: naïve CD4+ and CD8+ T cells co-cultured with nTreg cells; assay: SA-β-gal staining, T cell senescence induced by Treg cells; type: cell-based, human; details: for senescence induction in T cells co-cultured with nTreg cells, lipid supplement: naïve CD4+ T cells, lipids 5 μM or 10 μM, 3 days
Experimental: Senescence associated β-galactosidase staining. Senescence associated β-galactosidase (SA-β-gal) activity in senescent T cells was detected as the inventors previously described 23,32,33. Naive CD4+ or CD8+ T cells were labeled with CFSE (4.5 μM), and co-cultured with Treg cells at a ratio of 4:1 in anti-CD3-coated 24-well plates for 3 days. Co-cultured naïve T cells were then separated from co-cultures using FACS sorting gated on CFSE positive populations, and then stained with SA-β-Gal staining reagent. […] For some experiments, naïve T cells were pretreated with the following inhibitors and then co-cultured with Treg cells. SA-β-gal expression in the co-cultured naïve T cells was determined. These inhibitors include: ACAT inhibitor Avasimable (5 μM and 10 μM), lipase inhibitor orlistat (10 μM), and cPLA2α inhibitor MAFP (1 μM and 5 μM) (Cayman Chemical); ATM inhibitor KU55933 (10 μM, Tocris Bioscience); stat1 inhibitor MTA (5 μM), stat3 inhibitor S3I-201 (10 μM) (Sigma-Aldrich); MAPK inhibitors including U0126 (10 μM) and SB203580 (10 μM) (Calbiochemistry).
(§1) Lipid supplement assay. Lysophosphatidylcholine (LPC, 16:0 LPC, 16:0 aLPC, and 16:0 pLPC), Phosphatidylethanolamine (PE, 16:0 lyso PE) and Phosphatidylserine (PS, 16:0 lyso PS) were purchased from the Avanti Polar Lipids, INC. C2-Ceramide was purchased from Sigma. All the lipids were dissolved in chloroform, evaporated under a gentle stream of nitrogen and then immediately dissolved in an ethanol vehicle (0.1%). Naïve CD4+ T cells were first treated with or without the lipids (5 μM or 10 μM) for 1 hour and then co-cultured with Treg cells at a ratio of 4:1 in anti-CD3-coated (2 μg/ml) plates for 3 days. The treated naïve CD4+ T cells were then performed SA-β-gal and Oil red O staining.

naïve T cells [2] = assay: SA-β-gal staining of naïve T cells cultured with the substance alone; type: cell-based, human
Experimental: Senescence associated β-galactosidase staining. […] Naive CD4+ or CD8+ T cells were labeled with CFSE (4.5 μM), and co-cultured with Treg cells at a ratio of 4:1 in anti-CD3-coated 24-well plates for 3 days. Co-cultured naïve T cells were then separated from co-cultures using FACS sorting gated on CFSE positive populations, and then stained with SA-β-Gal staining reagent. For tumor-induced T cell senescence, anti-CD3 activated naïve CD4+ T cells or CD8+ T cells were co-cultured with or without tumor cells at ratio of 1:1 for 1 day and then separated and cultured for additional 3 days. For some experiments, naïve T cells were pretreated with the following inhibitors and then co-cultured with Treg cells. SA-β-gal expression in the co-cultured naïve T cells was determined. These inhibitors include: ACAT inhibitor Avasimable (5 μM and 10 μM), lipase inhibitor orlistat (10 μM), and cPLA2α inhibitor MAFP (1 μM and 5 μM) (Cayman Chemical); ATM inhibitor KU55933 (10 μM, Tocris Bioscience); stat1 inhibitor MTA (5 μM), stat3 inhibitor S3I-201 (10 μM) (Sigma-Aldrich); MAPK inhibitors including U0126 (10 μM) and SB203580 (10 μM) (Calbiochemistry).

[3] = system: naïve CD4+ and CD8+ T cells co-cultured with nTreg cells; assay: Oil-Red O staining, LD formation in T cells co-cultured with Treg cells; type: cell-based, human
Experimental: as §1
(§2) Oil-Red O staining. The treated T cells were washed in PBS (pH 7.2), fixed with 4% formaldehyde for 30 minutes, and treated with 60% isopropanol for 2-5 minutes. Cells were further stained with freshly prepared Oil-Red O staining solution (Sigma-Aldrich) in isopropanol (60%) for 5 minutes, followed by quick rinse with isopropanol (60%). The stained cells were then washed with H2O thoroughly and lipid droplets in T cells were evaluated using a light microscope.

[4] = system: naïve CD8+ T cells co-cultured with nTreg cells; assay: Lipidomics (ESI-MS/MS) of Treg-induced senescent T cells; type: cell-based, human
Experimental: Lipidomics analysis. Lipids from T cells were extracted by the method of Bligh and Dyer in the presence of internal standards including eicosanoic acid, 1-0-heptadecanoyl-LPC, dieicosanoyl-PC, ditetradecanoyl-PE, ditetradecanoyl-PS, N-heptadecanoyl-Cer, and cholesteryl heptadecanoate (Bligh and Dyer, 1959). Extracted lipids were resuspended in methanol/chloroform (2:1, by vol.) and analyzed by ESI-MS in the direct infusion mode at a flow rate of 3 μl/min using a Thermo Electron TSQ Quantrum Ultra® instrument. Samples were analyzed in both the positive and negative ion mode using a shotgun lipidomics approach (Han and Gross, 2005). For LPC, neutral loss (NL) scanning of 59.1 was monitored in the positive ion mode for sodiated molecular ions. NL scanning of 368.5 was performed for sodiated CE molecular species in the positive ion mode (Bowden et al., 2011). PE was derivatized to fMOC-PE species and monitored in negative ion mode using NL scanning of 222.2. Neutral loss scanning for Cer (NL 256.2), PC (NL50) and PS (NL 87) was performed in the negative ion mode (Han and Gross, 2005). Fatty acids were converted to pentafluorobenzyl esters and quantified using negative ion chemical ionization detection and gas chromatography (Quehenberger et al., 2010). Spectra were averaged over 3-5 min and processed utilizing Xcalibur® software (Thermo Electron). Individual molecular species were quantified by comparing the ion intensity of individual molecular species to that of the appropriate internal standards following corrections for type I and type II 13C isotope effects (Han and Gross, 2005). Additional corrections were made from response curves for CE molecular species (Bowden et al., 2011). Each sample was normalized to cell number, and values are expressed per million cells.

naïve T cells [5] = assay: Oil-Red O staining of naïve T cells cultured with the substance alone; type: cell-based, human
Experimental: as §2

[6] = system: MAPK and STAT1/STAT3 signaling; assay: Phosphorylation of p38, ERK, STAT1 and STAT3 by flow cytometry in Treg-treated CD4+ T cells; type: cell-based, human; details: pretreated 24 hours (KU55933 10 μM; MAFP 5 μM), Treg co-culture 3 days
cPLA2α = assay: cPLA2α, p21 and p53 expression in Treg-treated T cells (western blot, qPCR, flow cytometry); type: cell-based, human
Experimental: Flow cytometry analysis. The expression markers on T cells were determined by flow cytometry analysis after surface staining or intracellular staining with anti-human specific antibodies conjugated with PE or Alexa Flour488. The human antibodies included: anti-CD27, anti-CD28, anti-phospho-ERK (Thr202/Tyr204), anti-phospho-p38 (Thr180/Tyr182), anti-phospho-STAT1 (Tyr701), anti-phospho-STAT3 (Tyr705 or Ser727), anti-phospho-ATM, anti-phospho-H2AX, anti-phospho-CHK2, anti-phospho-53BP1, and anti-cPLA2α, which were purchased from BD Biosciences, Biolegend, or Cell Signaling Technology. For Bodipy 493/503 staining (Thermo Fisher Scientific), T cells were incubated with Bodipy 493/503 (1 μg/ml) at room temperature for 15 minutes. All stained cells were analyzed on a LSR II cytometer (BD Bioscience) and data analyzed with FlowJo software (Tree Star).
Western-blotting analysis. CFSE-labeled naïve CD4+ or CD8+ T cells were co-cultured with Treg or control T cells at a ratio of 4:1 in the anti-CD3 antibody-precoated plates (2 μg/ml) for 3 days. In some experiments, T cells were pretreated with the cPLA2α inhibitor MAFP (5 M) for 24 hours, and then co-cultured with Treg cells. Treated T cells were then sorted by FACS gating on CFSE positive T cells. Whole cell lysates of the purified CD4+ T cells were prepared for western blot analyses. Western blots were developed with the Chemiluminescent Substrate (KPL, Maryland). The rabbit polyclonal antibodies used in the western blot analyses are as following: anti-cPLA2α, anti-P53, anti-P21, and anti-GAPDH. All antibodies were purchased from the Cell Signaling Technology.
(§3) Reverse-transcription quantitative PCR analysis. Total RNA was extracted from T cells using Trizol reagent (Invitrogen), and cDNA was transcribed using a SuperScript II RT kit (Invitrogen), both according to manufacturers' instructions. Expression levels of each gene were determined by reverse-transcription PCR using specific primers, and mRNA levels in each sample were normalized to the relative quantity of the housekeeping GAPDH or β-actin gene expression. All experiments were performed in triplicate.

B16F10 tumor = assay: B16F10 melanoma, Pmel-1 T cell adoptive transfer therapy model in C57BL/6 mice; details: Pmel-1 T cells pretreated with ATK 0.5 μM 2 hours; ATK 10 mg·kg-1/mouse i.p. day 1, 4, 7, 10
senescent T cells [7] = assay: Suppressive activity of senescent T cells, [3H]-thymidine proliferation assay; type: cell-based, human; details: data not shown
Experimental: Functional proliferation assay. Proliferation assays were performed using a [^3H]-thymidine incorporation assay, as the inventors previously described (Liu et al., 2018; Ye et al., 2014; 2012; Peng et al., 2005; 2007). Naïve CD4+ T cells (1×10^5/well) purified from healthy donors were co-cultured with Treg-treated T cells at a ratio of 10:1 in 200 μl of T cell assay medium containing 2% human AB. After 56 hours of culture, [3H]-thymidine was added at a final concentration of 1 μCi/well, followed by an additional 16 hours of culture. The incorporation of [^3H]-thymidine was measured with a liquid scintillation counter.

senescent T cells [8] = assay: Inflammatory cytokine mRNA by real-time qPCR in responder/senescent T cells; type: cell-based, human
Experimental: as §3

[9] = naïve CD4+ and CD8+ T cells pretreated with inhibitor 24 hours, co-cultured with nTreg 4:1, anti-CD3, 3 days
[10] = anti-CD3 coated plates, 3 days, no Treg cells
[11] = naïve CD4+ and CD8+ T cells pretreated with inhibitor 24 hours, co-cultured with nTreg 4:1, 3 days
[12] = pretreated with inhibitor 24 hours, Treg co-culture
[13] = CD8+ T cells pretreated with inhibitor 24 hours, nTreg co-culture 3 days

## CC(C)c1cc(C(C)C)c(CC(=O)NS(=O)(=O)Oc2c(C(C)C)cccc2C(C)C)c(C(C)C)c1 [avasimible]
[1]; [9]
  senescent (SA-β-gal+) T cell populations induced by Treg cells: dramatically reduced
naïve T cells [2]; [10]
  cell senescence (SA-β-gal) in naïve T cells, substance alone: does not induce cell senescence
[3]; [11]
  LD formation (Oil red O+ T cell populations) induced by Treg cells: dramatically reduced
[4]; CD8+ T cells pretreated 24 hours, nTreg co-culture 3 days
  total and sub-fractions of CE in senescent T cells: did not significantly down-regulate total and sub-fractions of CE
naïve T cells [5]; [10]
  LD formation (Oil-red O) in naïve T cells, substance alone: does not induce cell senescence and LD formation

## O=c1cc(-c2cccc3c2Sc2ccccc2S3)oc(N2CCOCC2)c1 [KU55933]
[6]
  phosphorylation of p38, ERK, STAT1 and STAT3 in Treg-treated CD4+ T cells: prevented phosphorylation of MAPKs and STAT1/STAT3
[1]; [9]
  senescent (SA-β-gal+) T cell populations induced by Treg cells: dramatically reduced
cPLA2α; [12]
  cPLA2α expression in Treg-induced senescent T cells: significantly decreased both mRNA and protein expression of cPLA2α
[3]; [11]
  LD formation (Oil red O+ T cell populations) induced by Treg cells: dramatically reduced
[4]; CD8+ T cells pretreated with KU55933 (10 μM) 1 day, nTreg co-culture 3 days
  CE and FFA in senescent T cells: markedly prevented Treg-induced up-regulation of CE and FFA

## C[S+]([O-])c1ccc(-c2nc(-c3ccncc3)c(-c3ccc(F)cc3)[nH]2)cc1 (stereo not shown) [SB203580]
[1]
  senescent (SA-β-gal+) T cell populations induced by Treg cells: prevented senescence induction
cPLA2α
  cPLA2α expression in Treg-induced senescent T cells: dramatically suppressed the enhanced cPLA2α expression
naïve T cells [2]
  cell senescence (SA-β-gal) in naïve T cells, substance alone: did not promote cell senescence
[3]
  LD formation (Oil red O+ T cell populations) induced by Treg cells: significantly decreased Oil red O+ T cell populations
[4]
  CE and PC in senescent T cells: significantly prevented the Treg-induced up-regulation of CE and down-regulation of PC
naïve T cells [5]
  LD formation (Oil-red O) in naïve T cells, substance alone: did not promote cell senescence and LD formation

## Phosphatidylethanolamine [PE]
[1]
  senescence induction in T cells co-cultured with nTreg cells, lipid supplement: markedly prevented senescence induction

## Lysophosphatidylcholine [LPC]
[1]
  senescence induction in T cells co-cultured with nTreg cells, lipid supplement: markedly prevented senescence induction

## CCCCC/C=C\C/C=C\C/C=C\C/C=C\CCCC(=O)C(F)(F)F [ATK]
B16F10 tumor
  anti-tumor immunity and tumor immunotherapy, ATK: enhances anti-tumor immunity and tumor immunotherapy in vivo
[1]; [9]
  senescent (SA-β-gal+) T cell populations induced by Treg cells: can prevent T cell senescence

## Phosphatidylserine [PS]
[1]
  senescence induction in T cells co-cultured with nTreg cells, lipid supplement: markedly prevented senescence induction

## CCCCCCCCCCCCC/C=C/[C@@H](O)[C@H](CO)NC(C)=O [Cer, C2-Ceramide]
[1]
  senescence induction in T cells co-cultured with nTreg cells, lipid supplement: markedly prevented senescence induction

## O=CC[C@@H](O)[C@H](O)[C@H](O)CO [2-DG]
Senescent T cells [7]
  suppressive activity of senescent T cells on proliferation of effector T cells: inhibited their suppressive activity
Senescent T cells [8]; senescent CD8+ T cells, 3-BrPA (30 μM) or 2-DG (2 mM), additional 1 day
  secretion of pro-inflammatory cytokines by senescent T cells: significantly decreased

## O=C(O)C(=O)CBr [3-BrPA]
Senescent T cells [7]
  suppressive activity of senescent T cells on proliferation of effector T cells: inhibited their suppressive activity
Senescent T cells [8]
  secretion of pro-inflammatory cytokines by senescent T cells: significantly decreased

## CSC[C@H]1O[C@@H](n2cnc3c(N)ncnc32)[C@H](O)[C@@H]1O [MTA]
[1]; [9]
  senescent (SA-β-gal+) T cell populations induced by Treg cells: prevented senescence induction
cPLA2α; [12]
  cPLA2α expression in Treg-induced senescent T cells: dramatically suppressed the enhanced cPLA2α expression
naïve T cells [2]; [10]
  cell senescence (SA-β-gal) in naïve T cells, substance alone: did not promote cell senescence
[3]; [11]
  LD formation (Oil red O+ T cell populations) induced by Treg cells: significantly decreased Oil red O+ T cell populations
[4]; [13]
  CE and PC in senescent T cells: significantly prevented the Treg-induced up-regulation of CE and down-regulation of PC
naïve T cells [5]; [10]
  LD formation (Oil-red O) in naïve T cells, substance alone: did not promote cell senescence and LD formation

## N#CC(=C(/N)Sc1ccccc1N)/C(C#N)=C(\N)Sc1ccccc1N [U0126]
[1]
  senescent (SA-β-gal+) T cell populations induced by Treg cells: prevented senescence induction
cPLA2α
  cPLA2α expression in Treg-induced senescent T cells: dramatically suppressed the enhanced cPLA2α expression
naïve T cells [2]
  cell senescence (SA-β-gal) in naïve T cells, substance alone: did not promote cell senescence
[3]
  LD formation (Oil red O+ T cell populations) induced by Treg cells: significantly decreased Oil red O+ T cell populations
[4]
  CE and PC in senescent T cells: significantly prevented the Treg-induced up-regulation of CE and down-regulation of PC
naïve T cells [5]
  LD formation (Oil-red O) in naïve T cells, substance alone: did not promote cell senescence and LD formation

## CCCCCCCCCCC[C@@H](C[C@@H]1OC(=O)[C@H]1CCCCCC)OC(=O)[C@H](CC(C)C)NC=O [orlistat]
naïve T cells [2]; [10]
  cell senescence (SA-β-gal) in naïve T cells, substance alone: dramatically increased cell senescence
naïve T cells [5]; [10]
  LD formation (Oil-red O) in naïve T cells, substance alone: promoted LD formation

## Cc1ccc(S(=O)(=O)OCC(=O)Nc2ccc(C(=O)O)c(O)c2)cc1 [S3I-201]
[1]; [9]
  senescent (SA-β-gal+) T cell populations induced by Treg cells: prevented senescence induction
cPLA2α; [12]
  cPLA2α expression in Treg-induced senescent T cells: dramatically suppressed the enhanced cPLA2α expression
naïve T cells [2]; [10]
  cell senescence (SA-β-gal) in naïve T cells, substance alone: did not promote cell senescence
[3]; [11]
  LD formation (Oil red O+ T cell populations) induced by Treg cells: significantly decreased Oil red O+ T cell populations
[4]; [13]
  CE and PC in senescent T cells: significantly prevented the Treg-induced up-regulation of CE and down-regulation of PC
naïve T cells [5]; [10]
  LD formation (Oil-red O) in naïve T cells, substance alone: did not promote cell senescence and LD formation
